Test results published in patent publication US9585933B2, “Therapeutic use of peptide inhibitors of NADPH oxidase; aerosolization as a delivery mechanism” (University of Pittsburgh—Of the Commonwealth System of …, priority 2011, dated 2017).
Where no end group is shown, it is not given here.

Tests used:
[1] = test system: hypoxia-induced pulmonary hypertension in mice; test: Aerosolized peptide in hypoxia-induced pulmonary hypertension, right ventricular hypertrophy; assay type: in vivo, mice (C57BL/6)
Procedure: Nebulization was performed using a peptide solution of 5.6 mg of the Nox2ds-tat polypeptide—RKKRRQRRRCSTRIRRQL (SEQ ID NO: 7)—was dissolved in 5 mL of PBS. The polypeptide-containing solution was placed in a nebulization chamber which consisted of a Plexiglas living environment measuring 24×10×9 in. A diffuser was placed in front of the inlet to allow equal distribution of nebulized droplets, and a controlled fan pulled air through the environment
The polypeptide was delivered to mice (C57BL/6, n=2) at an air flow rate of 8 L/minute for 20 minutes per treatment. Treatment was repeated every other day for 21 days.
FIG. 7 (top panel) is a graph showing right ventricular pressure and FIG. 7 (bottom panel) is a graph showing the Fulton's Index for the mice tested. To obtain a Fulton's Index, the heart and lungs are excised and weighed, and the ratio of RV free wall weight over septum plus left ventricular (LV) free wall weight is estimated and used as the index of RV hypertrophy.
Invasive hemodynamics to examine RV function were carried out using pressure-volume loop analysis (Scisence P/V loop hardware, London, Ontario with IOX2 analysis software, EMKA, Falls Church, Va.). Contractility index (dP/dtmax/IP), Powermax/EDV, and ejection fraction as indicators of RV systolic function as well as the time constant of relaxation (Tau) and dP/dtmin as measures of RV relaxation were determined.

[2] = target: T1, Nox2 oxidase (COS-Nox2 lysate) (Homo sapiens, UniProt P14598); test: EPR with spin probe CMH, O2- production in COS-Nox2 lysates; assay type: biochemical; details: 10 μM peptide, vehicle 36330±2658
T1 construct: host or cells: COS 7 cells, stably transfected; cell lysate used
T1 sequence (P14598 1-390): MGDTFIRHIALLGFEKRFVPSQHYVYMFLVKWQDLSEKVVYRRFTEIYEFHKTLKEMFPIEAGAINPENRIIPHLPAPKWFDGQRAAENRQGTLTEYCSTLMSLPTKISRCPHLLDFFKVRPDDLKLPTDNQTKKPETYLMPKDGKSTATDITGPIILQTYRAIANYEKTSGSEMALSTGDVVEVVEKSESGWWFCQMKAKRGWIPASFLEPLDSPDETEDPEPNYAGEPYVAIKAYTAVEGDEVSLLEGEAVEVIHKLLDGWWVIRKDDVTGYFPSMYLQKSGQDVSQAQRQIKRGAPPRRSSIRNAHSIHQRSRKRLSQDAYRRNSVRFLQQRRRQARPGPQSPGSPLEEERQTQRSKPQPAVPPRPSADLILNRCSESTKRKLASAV
Procedure: To test this hypothesis, the inhibitory activity of Nox2ds was assessed in cell-free assays using reconstituted systems expressing either Nox1, 2 or 4 oxidase. Nox 2 oxidase was recapitulated by stably transfecting COS 7 cells with Nox2, p22phox, p47phox, and p67phox (aka COS-Nox2). Nox1 oxidase was obtained by transfecting COS 7 cells with Nox1, p22phox, NOXO1 and NOXA1 (COS-Nox1), and Nox 4 oxidase was regenerated by transfection of COS 7 cells with Nox4 and p22phox. […] Our new data support selectivity of Nox2ds peptide in differentiating the contribution of Nox2 vs. Nox1 and Nox4 NADPH oxidase and its potential clinical use in ameliorating cardiopulmonary diseases.
The spin probe 1-hydroxy-3-methoxycarbonyl-2,2,5,5-tetramethylpyrrolidine hydrochloride (CMH; Alexis Corp., San Diego, Calif., USA) was used to examine O2^− production in COS-Nox2 cell lysates using a Bruker eScan table-top EPR spectrometer (Bruker Biospin, USA). Superoxide production was measured in oxidase assay buffer (65 mM sodium phosphate buffer, pH 7.0, 1 mM EGTA, 10 μM FAD, 1 mM MgCl2, 2 mM NaN3) supplemented with 50 μM CMH. […] Analyses of the EPR spectra peak heights were used to quantify the amount of O2^− produced by the lysates and were compared with buffer-only control spectra or spectra in the presence of 10 μM Nox2ds, 10 μM Scrmb Nox2ds, or 150 U/ml SOD. […]

With CSTRVRRQL-NH2 [Nox2ds, CSTRVRRQL] the “right ventricular hypertrophy and RV pressure (in words)” value ([1]; hypoxia-induced pulmonary hypertension in mice) was “attenuated”, the “right ventricule/left ventricule+septum ratio (Fulton's Index)” value ([1]; hypoxic mice, n=2, normoxic 0.21±0.01, hypoxic 0.27±0.02, preliminary data) was 0.22±0.004 and the “CM radical intensity (EPR, O2- production)” value [2] was 18360±2666.
